Data taken from the NIST ThermoML archive (doi:10.1016/j.fluid.2018.10.006).
Numbers after ± are expanded uncertainties.

Conditions: Fluid (supercritical or subcritical phases), Coaxial cylinder method

CCCCCC [hexane]
Conditions	thermal conductivity [W/m/K]
511.55 K, 5000 kPa	0.07163 ± 0.0034
511.55 K, 5100 kPa	0.07163 ± 0.0034
511.55 K, 5300 kPa	0.07217 ± 0.0034
511.55 K, 5500 kPa	0.0724 ± 0.0034
511.55 K, 5800 kPa	0.07283 ± 0.0034
511.55 K, 6000 kPa	0.07313 ± 0.0034
511.55 K, 6200 kPa	0.07344 ± 0.0034
511.55 K, 6400 kPa	0.07374 ± 0.0034
511.55 K, 6600 kPa	0.07406 ± 0.0034
511.55 K, 6800 kPa	0.07437 ± 0.0035
511.55 K, 6900 kPa	0.07456 ± 0.0035
511.55 K, 7100 kPa	0.07481 ± 0.0035
511.55 K, 7200 kPa	0.07501 ± 0.0035
511.55 K, 7300 kPa	0.07513 ± 0.0035
511.55 K, 7500 kPa	0.07618 ± 0.0035
511.55 K, 7800 kPa	0.07658 ± 0.0036
511.55 K, 8000 kPa	0.07685 ± 0.0036
511.55 K, 8200 kPa	0.07712 ± 0.0036
511.55 K, 8300 kPa	0.07719 ± 0.0036
511.55 K, 8400 kPa	0.07733 ± 0.0036
511.55 K, 8500 kPa	0.07746 ± 0.0036
511.55 K, 8600 kPa	0.0776 ± 0.0036
511.55 K, 8700 kPa	0.07767 ± 0.0036
511.55 K, 9000 kPa	0.07803 ± 0.0036
511.55 K, 9100 kPa	0.07815 ± 0.0036
511.55 K, 9200 kPa	0.07822 ± 0.0036
511.55 K, 9300 kPa	0.07828 ± 0.0036
511.55 K, 9400 kPa	0.07837 ± 0.0036
511.55 K, 9700 kPa	0.0787 ± 0.0036
511.55 K, 10000 kPa	0.07902 ± 0.0037
511.79 K, 1600 kPa	0.03961 ± 0.002
511.79 K, 1800 kPa	0.04006 ± 0.0021
511.79 K, 1900 kPa	0.04052 ± 0.0021
511.79 K, 2000 kPa	0.041 ± 0.0021
511.79 K, 2090 kPa	0.04133 ± 0.0021
511.79 K, 2100 kPa	0.04148 ± 0.0021
511.79 K, 2110 kPa	0.04151 ± 0.0021
511.79 K, 2200 kPa	0.04198 ± 0.0021
511.79 K, 2300 kPa	0.0427 ± 0.0022
511.79 K, 2400 kPa	0.04354 ± 0.0022
511.79 K, 2500 kPa	0.04428 ± 0.0022
511.79 K, 2600 kPa	0.04543 ± 0.0023
511.79 K, 2700 kPa	0.04664 ± 0.0023
511.79 K, 2800 kPa	0.04819 ± 0.0024
511.79 K, 2817 kPa	0.04857 ± 0.0024
511.79 K, 2911 kPa	0.05076 ± 0.0025
511.79 K, 2958 kPa	0.052 ± 0.0025
511.79 K, 2987 kPa	0.05281 ± 0.0026
511.79 K, 3000 kPa	0.05337 ± 0.0026
511.79 K, 3049 kPa	0.05564 ± 0.0027
511.79 K, 3076 kPa	0.05734 ± 0.0028
511.79 K, 3093 kPa	0.05872 ± 0.0028
511.79 K, 3101 kPa	0.05933 ± 0.0029
511.79 K, 3113 kPa	0.06039 ± 0.0029
511.79 K, 3121 kPa	0.06126 ± 0.0029
511.79 K, 3133 kPa	0.06272 ± 0.003
511.79 K, 3143 kPa	0.06414 ± 0.003
511.79 K, 3151 kPa	0.06537 ± 0.0031
511.79 K, 3156 kPa	0.06613 ± 0.0031
511.79 K, 3163 kPa	0.06743 ± 0.0032
511.79 K, 3167 kPa	0.06811 ± 0.0033
511.79 K, 3169 kPa	0.06851 ± 0.0033
511.79 K, 3172 kPa	0.06906 ± 0.0034
511.79 K, 3175 kPa	0.06962 ± 0.0034
511.79 K, 3177 kPa	0.07014 ± 0.0035
511.79 K, 3179 kPa	0.07048 ± 0.0035
511.79 K, 3181 kPa	0.07092 ± 0.0035
511.79 K, 3183 kPa	0.07134 ± 0.0036
511.79 K, 3185 kPa	0.07166 ± 0.0037
511.79 K, 3186 kPa	0.07193 ± 0.0037
511.79 K, 3188 kPa	0.07227 ± 0.0037
511.79 K, 3189 kPa	0.07257 ± 0.0038
511.79 K, 3190 kPa	0.07273 ± 0.0038
511.79 K, 3191 kPa	0.07304 ± 0.0038
511.79 K, 3192 kPa	0.07319 ± 0.0039
511.79 K, 3193 kPa	0.07344 ± 0.0039
511.79 K, 3194 kPa	0.07367 ± 0.0039
511.79 K, 3195 kPa	0.07382 ± 0.0039
511.79 K, 3196 kPa	0.07398 ± 0.004
511.79 K, 3197 kPa	0.07424 ± 0.004
511.79 K, 3198 kPa	0.07446 ± 0.004
511.79 K, 3199 kPa	0.07463 ± 0.0041
511.79 K, 3200 kPa	0.07479 ± 0.0041
511.79 K, 3202 kPa	0.07528 ± 0.0041
511.79 K, 3204 kPa	0.07561 ± 0.0043
511.79 K, 3205 kPa	0.07578 ± 0.0043
511.79 K, 3206 kPa	0.07595 ± 0.0042
511.79 K, 3209 kPa	0.07635 ± 0.0043
511.79 K, 3212 kPa	0.07676 ± 0.0043
511.79 K, 3214 kPa	0.077 ± 0.0043
511.79 K, 3216 kPa	0.07724 ± 0.0043
511.79 K, 3219 kPa	0.07745 ± 0.0042
511.79 K, 3221 kPa	0.07749 ± 0.0042
511.79 K, 3223 kPa	0.07756 ± 0.0041
511.79 K, 3226 kPa	0.07759 ± 0.0041
511.79 K, 3231 kPa	0.07766 ± 0.0039
511.79 K, 3234 kPa	0.07766 ± 0.0037
511.79 K, 3236 kPa	0.07745 ± 0.0037
511.79 K, 3237 kPa	0.07745 ± 0.0037
511.79 K, 3240 kPa	0.07732 ± 0.0036
511.79 K, 3243 kPa	0.07697 ± 0.0036
511.79 K, 3246 kPa	0.07663 ± 0.0036
511.79 K, 3247 kPa	0.07629 ± 0.0036
511.79 K, 3251 kPa	0.07496 ± 0.0035
511.79 K, 3253 kPa	0.07496 ± 0.0035
511.79 K, 3256 kPa	0.07463 ± 0.0035
511.79 K, 3257 kPa	0.07431 ± 0.0035
511.79 K, 3264 kPa	0.07399 ± 0.0036
511.79 K, 3265 kPa	0.07367 ± 0.0036
511.79 K, 3269 kPa	0.07336 ± 0.0036
511.79 K, 3270 kPa	0.07336 ± 0.0036
511.79 K, 3276 kPa	0.07336 ± 0.0035
511.79 K, 3278 kPa	0.07336 ± 0.0035
511.79 K, 3280 kPa	0.07336 ± 0.0035
511.79 K, 3285 kPa	0.07336 ± 0.0035
511.79 K, 3291 kPa	0.07243 ± 0.0034
511.79 K, 3293 kPa	0.07243 ± 0.0034
511.79 K, 3295 kPa	0.07243 ± 0.0034
511.79 K, 3300 kPa	0.07213 ± 0.0034
511.79 K, 3301 kPa	0.07183 ± 0.0034
511.79 K, 3306 kPa	0.07183 ± 0.0034
511.79 K, 3310 kPa	0.07153 ± 0.0034
511.79 K, 3313 kPa	0.07123 ± 0.0034
511.79 K, 3315 kPa	0.07123 ± 0.0034
511.79 K, 3319 kPa	0.07122 ± 0.0034
511.79 K, 3321 kPa	0.07122 ± 0.0033
511.79 K, 3325 kPa	0.07122 ± 0.0034
511.79 K, 3327 kPa	0.07122 ± 0.0034
511.79 K, 3330 kPa	0.07122 ± 0.0034
511.79 K, 3332 kPa	0.07122 ± 0.0034
511.79 K, 3335 kPa	0.07122 ± 0.0033
511.79 K, 3340 kPa	0.07122 ± 0.0033
511.79 K, 3346 kPa	0.07122 ± 0.0033
511.79 K, 3350 kPa	0.07123 ± 0.0033
511.79 K, 3353 kPa	0.07123 ± 0.0033
511.79 K, 3355 kPa	0.07123 ± 0.0033
511.79 K, 3360 kPa	0.07123 ± 0.0033
511.79 K, 3365 kPa	0.07064 ± 0.0033
511.79 K, 3367 kPa	0.07064 ± 0.0033
511.79 K, 3368 kPa	0.07064 ± 0.0033
511.79 K, 3370 kPa	0.07064 ± 0.0033
511.79 K, 3375 kPa	0.07064 ± 0.0033
511.79 K, 3380 kPa	0.07064 ± 0.0033
511.79 K, 3385 kPa	0.07064 ± 0.0033
511.79 K, 3390 kPa	0.07064 ± 0.0033
511.79 K, 3395 kPa	0.07064 ± 0.0033
511.79 K, 3400 kPa	0.07064 ± 0.0033
511.79 K, 3410 kPa	0.07064 ± 0.0033
511.79 K, 3420 kPa	0.07065 ± 0.0033
511.79 K, 3440 kPa	0.07065 ± 0.0033
511.79 K, 3460 kPa	0.07065 ± 0.0033
511.79 K, 3500 kPa	0.07041 ± 0.0033
511.79 K, 3600 kPa	0.06993 ± 0.0033
511.79 K, 3657 kPa	0.06978 ± 0.0033
511.79 K, 3700 kPa	0.06973 ± 0.0033
511.79 K, 3750 kPa	0.06973 ± 0.0033
511.79 K, 3800 kPa	0.06973 ± 0.0033
511.79 K, 3850 kPa	0.06973 ± 0.0033
511.79 K, 3900 kPa	0.06973 ± 0.0033
511.79 K, 3950 kPa	0.06975 ± 0.0033
511.79 K, 3980 kPa	0.06975 ± 0.0033
511.79 K, 4000 kPa	0.06988 ± 0.0033
511.79 K, 4030 kPa	0.06995 ± 0.0033
511.79 K, 4100 kPa	0.07011 ± 0.0033
